Assay results reported in patent publication EP2767275A1, “Nortriptyline, haloperidol or prochlorperazine edisylate for use in the treatment of tuberculosis as well as two screening methods” (priority 2013, dated 2014).
Read-outs that look alike come from different tables or passages of the source.

Columns and labels:
M. bovis BCG-GFP [1] = format: cell-based; conditions: for pattern-specific score (PSS): 10µM, 48 hr
[2] = test system: HeLa cells stably expressing mRFP-GFP-LC3; format: cell-based, human; conditions: for mRFP to GFP co-localisation: 2 hr, N and PE 10µM, Chloroquine 25 µM, BafilomycinA1 100nM; for co-localisation of mRFP and GFP over time: different periods of time
Method: Second, an established assay was used for measuring autophagic flux based on a tandem mRFP-GFP-LC3 construct (Kimura et al., 2007). Since GFP is quenched in the acidic environment of autophagolysosomes whereas mRFP remains stable, agents blocking autophagy flux display higher colocalization of mRFP and GFP compared to those inducing autophagy. HeLa cells stably expressing mRFP-GFP-LC3 (Settembre et al., 2011) were treated with the compounds and the co-localization between mRFP and GFP was quantified. […] Similar results were obtained for the co-localisation of LC3-GFP with LBPA in HeLa-LC3-GFP cells (Figure 12D).
The increased acidification by PE is in apparent contradiction with the inhibition of autophagic flux. To solve this discrepancy, HeLa cells stably expressing mRFP-GFP- -LC3 were treated with the compounds for different periods of time.

M. bovis BCG-GFP [3] = format: cell-based; conditions: 10µM, 4 days plus 24hr with alamar blue
M. bovis BCG-GFP [4] = format: cell-based
[5] = test system: A431 cells stably expressing GFP-Rab5; assay: Live cell imaging of endosome motility; format: cell-based; conditions: 10µM, 2 hr
HeLa BAC GFP-Rab5c = assay: Cell-based LDL trafficking assay; parameters: species or system human
HeLa cells = assay: High content autophagy assay (LC3 immunostaining); format: cell-based, human; conditions: 10µM (Rapamycin 5.5 µM), 4 hr
Method: HeLa cells were treated with the compounds at a final concentration of 10µM, incubated for 4 hr, fixed with 3.7% PFA and immunostained with anti-LC3 antibody (clone PM036, MBL labs). Cells were counterstained by DAPI and Cell Mask Blue, imaged and analyzed as described above.
Autophagy is a key process regulated by mTOR (Laplante and Sabatini, 2012) and a known mediator of intracellular mycobacterial survival (Gutierrez et al., 2004; Kumar et al., 2010). The integration approach predicted that compounds from E1, but not E2, modulate autophagy. To test it, HeLa cells were treated with the compounds, immunostained for the autophagosome marker LC3 and multiple parameters reporting diverse facets of autophagosomes were extracted (Table 3). […] Of the three compounds validated in intracellular mycobacterial killing, Nortriptyline and PE belong to sub-cluster E1 whereas Haloperidol belongs to E2.

M. bovis BCG-GFP [6] = format: cell-based; remark: listed apart in the source
LC3 = conditions: for LC3-II band: 10 µM; for additive effects of BafilomycinA1 on LC3-II band: 10 µM with BafilomycinA1 100nM
HeLa BAC LC3-GFP = format: cell-based, human

`Cn1cnc(N)c2ncnc1-2` [3-MA, 3-Methyl Adenine] was tested, and the “effect of 3-MA on action of Nortriptyline on mycobacterial survival” value (M. bovis BCG-GFP [1]) was “reverted the effect of Nortriptyline on mycobacterial survival”.
With `CC1(C)CC2C1CCC1(C)OC2(C)CCC1O` (centres unmarked) [3;7-EPOXYCARYOPHYLLAN-6-OL] the “pattern-specific score (PSS)” value (M. bovis BCG-GFP [1]) was 0.7194.
In the case of `COc1cc2c(cc1OC)C1(O)C(=O)c3ccc(O)c(C(=O)O)c3OC1CO2` (centres unmarked) [12A-HYDROXY-9-DEMETHYLMUNDUSERONE-8-CARBOXYLIC ACID], the “pattern-specific score (PSS)” value (M. bovis BCG-GFP [1]) was 0.8387.
In the case of `CO/C1=C\C(C)=C\[C@@H](C)[C@@H](O)[C@@H](C)C/C(C)=C/C=C/[C@H](OC)[C@@H]([C@@H](C)[C@@H](O)[C@H](C)[C@@]2(O)C[C@@H](O)[C@H](C)[C@@H](C(C)C)O2)OC1=O` [BafilomycinA1], the “mRFP to GFP co-localisation” value [2] was “higher co-localisation” and the “co-localisation of mRFP and GFP over time” value (“co-localisation … over time” below) [2] was “increased over time”.
With `CO/N=C(\C(=O)N[C@@H]1C(=O)N2C(C(=O)OCOC(=O)C(C)(C)C)=C(/C=C\c3scnc3C)CS[C@H]12)c1csc(N)n1` [CEFDITORIN PIVOXIL] the “pattern-specific score (PSS)” value (M. bovis BCG-GFP [1]) was 0.8626.
With `CCN(CC)CCCC(C)Nc1ccnc2cc(Cl)ccc12` (centres unmarked) [Chloroquine] the “mRFP to GFP co-localisation” value [2] was “higher co-localisation” and the “co-localisation … over time” value [2] was “increased over time”.
`NC(C(=O)O)C(O)C(=O)O` [D;L-THREO-3-HYDROXYASPARTIC ACID] was tested, and the “pattern-specific score (PSS)” value (M. bovis BCG-GFP [1]) was 0.8004.
For `OC[C@@H](O)[C@@H](OC1O[C@H](CO)[C@@H](O)[C@H](O)[C@H]1O)[C@H](O)[C@@H](O)CO` (some centres unmarked) [GLUCITOL-4-GUCOPYANOSIDE], the “pattern-specific score (PSS)” value (M. bovis BCG-GFP [1]) was 0.8836.
With `O=S(=O)(NCCNC/C=C/c1ccc(Br)cc1)c1cccc2cnccc12` [H89] the “pattern-specific score (PSS)” value (M. bovis BCG-GFP [1]) was 0.9636.
`O=c1cc(-c2cc(O)c(O)c(O)c2)oc2cc(O)cc(O)c12` [HIERACIN] was tested, and the “pattern-specific score (PSS)” value (M. bovis BCG-GFP [1]) was 0.3164.
With `O=C(CCCN1CCC(O)(c2ccc(Cl)cc2)CC1)c1ccc(F)cc1` [Haloperidol, 4-[4-(4-chlorophenyl)-4-hydroxy-1-piperidyl]-1-(4-fluorophenyl)-butan-1-one] the “effect in the alamar blue screen” value (M. bovis BCG-GFP [3]) was “lack of effect”, the “bacteriostatic activity on M. bovis BCG-GFP at neutral and acidic pH” value (shortened to “bacteriostatic activity”) (M. bovis BCG-GFP [4]; 10 µM) was “did not show bacteriostatic activity” and the “mean square displacement of endosomes” value [5] was “long, but not short, time-scale movements of GFP-Rab5 endosomes were significantly accelerated”. For the same compound, the “motility of early endosomes” value [5] was “much higher motility of early endosomes harboring high levels of Rab5”, the “intensity of LDL in early and late endosomes” value (HeLa BAC GFP-Rab5c; 10µM, LDL pulse for different times) was “significantly increased the intensity of LDL in late, but not early endosomes” and the “size, number and position of LDL-containing late endosomes” value (HeLa BAC GFP-Rab5c; 10 µM, late, but not early endosomes) was “larger, more numerous and closer to the cell centre”. For the same compound, the effect on autophagy (HeLa cells) was “did not” and the “phenotype (phenotypic profile) in mycobacteria high content screen” value (shortened to “phenotype (phenotypic profile)”) (M. bovis BCG-GFP [1]) was “reduced bacterial intensity, fewer bacteria and infected cells”.
With `CN1CCc2c(c3ccccc3n2Cc2ccccc2)C1.CN1CCc2c(c3ccccc3n2Cc2ccccc2)C1.O=S(=O)(O)c1cccc2c(S(=O)(=O)O)cccc12` [MEBHYDROLIN NAPHTHALENESULFONATE] the “pattern-specific score (PSS)” value (M. bovis BCG-GFP [1]) was 0.9999.
`CSc1ccc2c(c1)C(N1CCN(C)CC1)Cc1ccccc1S2.O=C(O)/C=C\C(=O)O` (centres unmarked) [METHIOTHEPIN MALEATE] was tested, and the “pattern-specific score (PSS)” value (M. bovis BCG-GFP [1]) was 0.9941.
For `CC([C@H](O)c1ccccc1)N(C)C` (stereo partly drawn) [N-METHYL (-)EPHEDRINE], the “pattern-specific score (PSS)” value (M. bovis BCG-GFP [1]) was 0.8936.
For `CN(C)c1nc(N)c(C(=O)N=C(N)N)nc1Cl` [N;N-DIMETHYLAMILORIDE], the “pattern-specific score (PSS)” value (M. bovis BCG-GFP [1]) was 0.5976.
In the case of `CNCCC=C1c2ccccc2CCc2ccccc21` [Nortriptyline, 3-(10,11-dihydro-5H-dibenzo[a,d]cyclohepten-5-ylidene)-N-methyl-1-propanamine], the “synergy with IFN-γ on mycobacterial survival” value (M. bovis BCG-GFP [6]) was “synergized strongly with IFN-γ”, the “effect in the alamar blue screen” value (M. bovis BCG-GFP [3]) was “lack of effect” and the “bacteriostatic activity” value (M. bovis BCG-GFP [4]) was “did not show bacteriostatic activity”. The LC3-II band (LC3) was “significant increase in the LC3-II band”, the “additive effects of BafilomycinA1 on LC3-II band” value (LC3) was “additive effects of BafilomycinA1 were seen” and the effect on autophagy (HeLa cells) was “strong effect on autophagy”. For the same compound, the “additive effect with BafilomycinA1 and Chloroquine in increasing LC3-GFP vesicles” value (HeLa BAC LC3-GFP) was “had an additive effect”, the “phenotype (phenotypic profile)” value (M. bovis BCG-GFP [1]) was “reduced bacterial intensity, fewer bacteria and infected cells” and the “mRFP to GFP co-localisation” value [2] was “low mRFP to GFP co-localisation”.
In the case of `CN1CCN(CCCN2c3ccccc3Sc3ccc(Cl)cc32)CC1` [Prochlorperazine edisylate, 2-chloro-10-[3-(4-methyl-1-piperazinyl)propyl]-10H-phenothiazine], the “synergy with IFN-γ on mycobacterial survival” value (M. bovis BCG-GFP [6]) was “much weaker effect”, the “effect in the alamar blue screen” value (M. bovis BCG-GFP [3]) was “lack of effect” and the “bacteriostatic activity” value (M. bovis BCG-GFP [4]; 10 µM) was “did not show bacteriostatic activity”. For the same compound, the LC3-II band (LC3) was “significant increase in the LC3-II band”, the “additive effects of BafilomycinA1 on LC3-II band” value (LC3) was “not” and the effect on autophagy (HeLa cells) was “strong effect on autophagy”. For the same compound, the “additive effect with BafilomycinA1 and Chloroquine in increasing LC3-GFP vesicles” value (HeLa BAC LC3-GFP; 10 µM, 4 hours, Chloroquine 25 µM, BafilomycinA1 100nM) was “not”, the “phenotype (phenotypic profile)” value (M. bovis BCG-GFP [1]) was “reduced bacterial intensity, fewer bacteria and infected cells” and the “mRFP to GFP co-localisation” value [2] was “higher co-localisation”. The “co-localisation … over time” value [2] was “increased within the first hr but then progressively decreased”.
In the case of `C[C@@H]1CC[C@@]2(OC1)O[C@H]1C[C@H]3[C@@H]4CC[C@@H]5C[C@@H](O)CC[C@]5(C)[C@H]4CC[C@]3(C)[C@H]1[C@@H]2C` [SMILAGENIN], the “pattern-specific score (PSS)” value (M. bovis BCG-GFP [1]) was 0.7198.
With `COc1cc2c3cc1Oc1cc(ccc1O)C[C@@H]1c4c(cc(OC)c(O)c4Oc4ccc(cc4)C[C@@H]3N(C)CC2)CC[N+]1(C)C.Cl.O.O.O.O.O.[Cl-]` [TUBOCURARINE CHLORIDE] the “pattern-specific score (PSS)” value (M. bovis BCG-GFP [1]) was 0.7944.
TOTAROL ACETATE was tested, and the “pattern-specific score (PSS)” value (M. bovis BCG-GFP [1]) was 0.7904.
For TRIMEPRAZINE TARTRATE, the “pattern-specific score (PSS)” value (M. bovis BCG-GFP [1]) was 1.
